Test results reported in US20100240604A1, “PROTECTED NUCLEOTIDE ANALOGS” (Alios BioPharma, Inc., priority 2009, published 2010).

Legend:
[1] = tested on: HCV RNA-replicating cell line, AVA5 (genotype 1b, subgenomic replicon); experiment: HCV replicon assay: intracellular HCV RNA levels by blot hybridization; type: cell-based, HCV genotype 1b; details: for EC50: 2-fold depression of HCV RNA relative to untreated cultures; for EC50 / EC90: normalized to β-actin RNA, daily treatment for three days, assessed at 72 hours; for EC90: 10-fold depression of HCV RNA relative to untreated cultures; for Antiviral activity (in words): results in Table 1
Experimental: (§1) Antiviral activity of the test compounds was assessed (Okuse, et al., Antivir. Res. (2005) 65:23) in the stably HCV RNA-replicating cell line, AVA5 (genotype 1b, subgenomic replicon, Blight, et al., Sci. (2000) 290:1972). Compounds were added to dividing cultures daily for three days. Cultures generally start the assay at 30-50% confluence and reach confluence during the last day of treatment. Intracellular HCV RNA levels and cytotoxicity were assessed 72 hours after treatment.
(§2) Quadruplicate cultures for HCV RNA levels and cytoxicity (on 96-well plates) were used. A total of 12 untreated control cultures, and triplicate cultures treated with α-interferon (concentrations of: 10 IU/mL, 3.3 IU/mL, 1.1 IU/mL and 0.37 IU/mL) and 2′C-Me-C (concentrations of: 30 μM, 10 μM, 3.3 μM and 1.1 μM) served as assay controls.
(§3) Intracellular HCV RNA levels were measured using a conventional blot hybridization method, in which HCV RNA levels are normalized to the levels of β-actin RNA in each individual culture (Okuse, et al., Antivir. Res. (2005) 65:23). Cytotoxicity was measured using an established neutral red dye uptake assay (Korba and Gerin, Antivir. Res. (1992) 19:55; Okuse, et al., Antivir. Res. (2005) 65:23). HCV RNA levels in the treated cultures are expressed as a percentage of the mean levels of RNA detected in untreated cultures. The absorbance of the internalized dye at […] (A510) was used for quantitative analysis.
(§4) Compounds were dissolved in 100% tissue culture grade DMSO (Sigma, Inc.) at 10 mM. Aliquots of test compounds sufficient for one daily treatment were made in individual tubes and all material was stored at −20° C. For the test, the compounds were suspended into culture medium at room temperature, and immediately added to the cell cultures. Compounds were analyzed separately in two groups with separate assay controls. […]
(§5) Values presented (±standard deviations [S.D.]) were calculated by linear regression analysis using data combined from all treated cultures. S.D. was calculated using the standard error of regression generated from the linear regression analyses (QuattroPro™). EC50 and EC90, drug concentrations at which a 2-fold, or a 10-fold depression of HCV RNA (relative to the average levels in untreated cultures), respectively, were observed; CC50, drug concentrations at which a 2-fold depression of neutral red dye uptake (relative to the average levels in untreated cultures) were observed.

[2] = Cytotoxicity by neutral red dye uptake assay in the HCV replicon cultures; type: cell-based; details: human; 2-fold depression of neutral red dye uptake relative to untreated cultures; daily treatment for three days, assessed at 72 hours
Experimental: as §1, §2, §3, §4, §5

AVA5 cell line = experiment: as above; type: cell-based; details: 2-fold depression of neutral red dye uptake relative to untreated cultures; daily treatment for three days, assessed at 72 hours
Experimental: as §1, §2, §3, §4, §5

Row | Structure (SMILES) | EC50 ([1]; Hepatitis C virus, Ava5) [µM] | EC90 ([1]; Hepatitis C virus, Ava5) [µM] | Antiviral activity (in words) [1] | CC50 at 72 h [2] [µM] | EC50 [1] [µM] | EC90 [1] [µM] | CC50 (AVA5 cell line) [µM]
1 | COC(=O)[C@H](C)NP(=O)(OC[C@H]1O[C@@H](n2cnc(C(N)=O)n2)[C@@H](O)C1O)Oc1ccccc1 (stereo partly drawn) [Compound 9] | > 100 | > 100 | inactive | > 100 |  |  | 
2 | CCOC(=O)C(COC(C)=O)(COP(=O)(N[C@@H](C)C(=O)OC)OC[C@H]1O[C@@H](n2cnc(C(N)=O)n2)[C@H](O)[C@@H]1O)C(=O)OCC (stereo partly drawn) [Compound 10] |  |  | showed activity |  | 8.7 | 54 | > 100
3 | CCOC(=O)C(COC(C)=O)(COP(=O)(OC[C@H]1O[C@@H](n2cnc(C(N)=O)n2)C(O)C1O)OCC(COC(C)=O)(C(=O)OCC)C(=O)OCC)C(=O)OCC (stereo partly drawn) [Compound 11, Ribavirin 5′-bis[3-acetyloxy-2,2-bis(ethoxycarbonyl)propyl]phosphate] | 1.6 ± 0.2 | 4.4 ± 0.4 | showed activity | 9.7 ± 0.2 |  |  | 
4 | C[C@@]1(O)[C@H](O)[C@@H](CO)O[C@H]1n1ccc(N)nc1=O [Compound 12a, 2′-β-methylcytidine, reference compound] |  |  |  |  | 1.6 | 5.9 | > 100
5 | COC(=O)[C@H](C)NP(=O)(OC[C@H]1O[C@@H](n2ccc(N)nc2=O)[C@H](OC)[C@@H]1O)Oc1ccccc1 (stereo partly drawn) [Compound 13, 2′-O-Methylcytidine 5′-[O-phenyl-N-(S-2-methoxy-1-methyl-2-oxoethyl)]phosphoramidate] |  |  |  |  | > 100 | > 100 | > 100
